≈ marks a conversion by molar mass, not a printed value. Where two headings read alike, the source gives them in different places.
Legend:
[1] = Solubility in phosphate buffer (0.16 M); format: physicochemical; details: aqueous buffer, thermodynamic from solid
Experimental: Excess amounts of each salt were added to the phosphate buffer (0.5 ml) individually. The mixtures were stirred and centrifuged at 6000 rpm for 6 min. The concentrations of each of the salts in their saturated solutions were analyzed by HPLC. The pH of the solutions was held constant throughout the experiment.

[2] = In vitro skin permeation study, Franz-type diffusion cell; format: in vitro ADME; details: male, Wistar, rat, read-out: Kp x10^6 (permeability coefficient) (converted)
Experimental: The in vitro skin permeation study was performed by using skin from the whole dorsal area of a male Wistar rat. […] For each salt and the parent drug, the cumulative amounts permeated through the skin were plotted against time. A steady-state flux (Jss) was obtained by dividing the slope of that graph by the surface area of the diffusion cell (4.906 cm^2).
All the reagents and solvents required for the syntheses were purified by general laboratory techniques before use. The purity of the compounds and completion of the reactions were monitored by thin layer chromatography (TLC) on silica gel plates (60 F254; Merck), visualized with ultraviolet light or iodine vapors. […] Melting points were determined using a Veego make silicon oil bath-type melting point apparatus and are uncorrected. The IR spectra were recorded using the KBr disc method in cm^−1 on a Bruker FTIR, Model 8300. The PMR spectra were recorded in CDCl3 on a Bruker 400 MHz spectrometer (chemical shifts in δ ppm, coupling constant J in Hz). λmax was determined on the Shimadzu 1800 UV spectrophotometer. The mass of the compounds was determined by LC-MS using electron impact as the source of ionization. DSC was performed on the Shimadzu DSC-60 model with the thermal analyser TA 60WS. The scanning electron microscope (SEM) model ESEM-EDAX XL-30, Philips (Netherlands) was used for the study of surface morphology. In vitro skin permeation studies were conducted using a Franz-type diffusion cell using skin from the whole dorsal area of a male Wistar rat (200 ± 10 g). Animal experiments were performed with the approval of the institutional animal ethical committee (MSU/PHARM/IAEC/2011/14) in accordance with Laboratory Animal Welfare guidelines.
In vitro skin permeation studies were performed by using skin from the whole dorsal area of a male Wistar rat in a Franz-type diffusion cell. Skin specimens were rehydrated before being mounted in the diffusion cell. The receptor medium (0.05 M phosphate buffer saline solution of pH 7.4) was stirred and kept at 37±1°C throughout the study.
The permeability coefficients (Kp) for the steady-state delivery were obtained by dividing the steady-state flux (Jss) by the solubilities of the compounds in the corresponding vehicle. The receiver medium (0.05 M phosphate buffer saline solution of pH 7.4) was stirred and kept at 37±1°C throughout the study. The compounds were applied as solutions in the phosphate buffer of pH 5.0 or 7.4. At specified time intervals, aliquots (0.5 ml) were withdrawn from the receiver compartment and replaced with fresh buffer. The drug concentrations were analyzed by HPLC.

[3] = cited from earlier work

solubility ([1]; pH 5.0, room temperature) | solubility ([1]; pH 7.4, room temperature) | Papp ([2]; pH 5) | Papp ([2]; pH 7.4) | SMILES | half-life [3]
14.2 ± 0.31 mM | 17.1 ± 0.21 mM | 0.0333 ×10⁻⁶ cm/s | 0.0667 ×10⁻⁶ cm/s | O=C([O-])Cc1ccc(-c2ccccc2)cc1.[Na+] [1a] | –
28.96 ± 0.28 mM | 24.1 ± 0.34 mM | 0.0222 ×10⁻⁶ cm/s | 0.178 ×10⁻⁶ cm/s | NCCO.O=C(O)Cc1ccc(-c2ccccc2)cc1 [1b] | –
0.57 ± 0.14 mM (≈ 121 µg/mL) | 54.08 ± 0.14 mM (≈ 11500 µg/mL) | 0.208 ×10⁻⁶ cm/s | 0.00833 ×10⁻⁶ cm/s | O=C(O)Cc1ccc(-c2ccccc2)cc1 [compound 1, reference compound] | > 10 h
